Laboratory results taken from publication PMC5517430, “2,3,7,8-Tetrachlorodibenzo-p-dioxin (TCDD)-elicited effects on bile acid homeostasis: Alterations in biosynthesis, enterohepatic circulation, and microbial metabolism” (Scientific Reports, 2017).

What was measured:
[1] = tested on: bile acid mixture; assay: Hydrophobicity index (HIx) of bile acid mixtures in liver, serum and feces; type: in vivo, mouse; settings: male mice
Source text: In general, bile acid toxicity increases with hydrophobicity, [39], which depends on ionization, hydroxylation, and conjugation (taurine, glycine, sulfate, glucoronate)[40]. The potential toxicity of a bile acid mixture can be estimated by calculating the hydrophilic-hydrophobic balance using the hydrophobicity index (HIx) of each bile acid species in the mixture, as described by Heuman[41]. […] Consequently, the shift towards increased hydrophobicity is primarily driven by a decrease in the relative abundance of T-α-MCA, a highly hydrophilic species.

[2] = set-up: method as in PMID 6138222; settings: mice; cited from earlier work
[3] = tested on: Slc6a6; assay: Hepatic RNA-Seq differential gene expression (fold change, P1(t), ED50, BMD, BMDL); type: in vivo, mouse; settings: C57BL/6, mouse, liver, oral; male mice, TCDD every 4 d for 28 d
Procedure: Frozen ileal epithelium scrapings and liver samples were homogenized in TRIzol (Ambion, Waltham, MA) using a Mixer Mill 300 tissue homogenizer (Retsch, Germany) and total RNA was isolated as previously described. RNA was quantified using a Nano-drop spectrophotometer (Thermo Scientific, Wilmington, DE) at 260 nm, and purity was assessed using the A260/A280 ratio and the Caliper LabChip GX (Perkin Elmer, Waltham, MA).
Dose-dependent gene expression was examined using RNA-Seq performed at the MSU Research Technology Support Facility (RTSF) Genomics Core (rtsf.natsci.msu.edu/genomics). Ileal libraries from three independent biological replicates (n = 3) were prepared using the Ovation Mouse RNA-Seq System 1–16 sample preparation kit (NuGen, San Carlos, CA), with an additional DNase step. Libraries were quantified and sequenced as previously described, using a read depth of ~30 M per sample[33], [67]. Quality was determined using FASTQC v0.11.3 and adaptor sequences were removed using Trimmomatic v0.33. Reads were mapped to the mouse reference genome (GRCm38 release 81) using Bowtie2 v2.2.6 and TopHat2 v2.1.0. Alignments were converted to SAM format using SAMTools v1.2.0. For TCDD-mediated differential gene expression, fold changes were calculated relative to vehicle controls. Hepatic RNA-Seq analysis was previously published. Genes were considered differentially expressed if |fold change| ≥ 1.5 and statistical P1(t) value ≥ 0.8 at one or more doses. RNA-Seq datasets for the ileal epithelium and liver were deposited in the Gene Expression Omnibus (GEO; accession number GSE89430 and GSE87519, respectively). The RNA-Seq results (fold changes, P1(t) values) for each gene discussed in the manuscript have been compiled in Supplementary Table S1. […] Estimation of benchmark dose (BMD) and BMD lower confidence limit (BMDL) was performed using BMDExpress[69] as previously described, and has been included in Supplementary Table S1.

[4] = tested on: hepatic taurine and glycine; set-up: method as in PMID 26582802; settings: female mice, cited from earlier work
[5] = tested on: serum ALP; assay: Serum alkaline phosphatase (ALP) activity, commercial kit; type: in vivo, mouse; settings: male mice, 30 µg/kg TCDD every 4 d for 28 d
Procedure: At 25d after the initial dose (PND53), fecal pellets from the previous 24 hours (h) were collected from each cage (4 mice per cage) and stored at −80 °C. At 28d after the initial exposure (PND56), mice (fasted for 6 h) were weighed and blood was collected from the submandibular vein prior to cervical dislocation. The gallbladder length, width, and depth were measured using a micro-caliper. Its volume was calculated assuming an ellipsoid shape: volume (µL) = length (mm) × width (mm) × depth (mm) × π/6[63], [64]. The distal ileum (10 cm section extending from the caecum toward the jejunum) was removed, flushed with Ca^2+/Mg^2+-free phosphate buffered saline (PBS; Sigma), and opened longitudinally. The epithelial lining was scraped into a vial containing TRIzol (Invitrogen, Carlsbad, CA), frozen in liquid nitrogen, and stored at −80 °C. Liver, gonadal white adipose tissue (gWAT), and brown adipose tissue were removed, weighed, frozen in liquid nitrogen, and stored at −80 °C. Serum alkaline phosphatase (ALP) activity was determined using a commercial kit (Pointe Scientific, Canton, MI).

[6] = tested on: intestine of male C57BL/6 mice; assay: Sugar probe intestinal para-cellular permeability (UPLC-MS/MS of urine); type: in vivo, mouse; settings: 30 µg/kg TCDD every 4 d, 26 d after initial dose
Procedure: At 26d after the initial dose (PND54), mice were fasted for 4 h (without access to food or water) prior to oral gavage with 150 µL of a solution containing 100 mg sucrose, 12 mg lactulose, 8 mg mannitol, and 6 mg sucralose. Urine from each mouse was collected over a 5 h period, flash frozen, and combined prior to analysis. Urine was diluted in 95% acetonitrile/5% water: 100-fold for mannitol detection, 200-fold for sucrose and lactulose detection, and 500-fold for sucralose detection. Sugar probe recovery was measured using ultra high performance liquid chromatography-tandem mass spectrometry (UPLC-MS/MS), performed at the MSU RTSF Mass Spectrometry and Metabolomics Core (https://rtsf.natsci.msu.edu/mass-spectrometry/). Diluted urine samples were injected onto an Acquity UPLC BEH Amide column (1.7 µm, 2.1 × 100 mm) (Waters, Milford, MA) maintained at 50 °C on a Waters ACQUITY UPLC systems (Waters). Mobile phase A was 50 mM ammonium acetate buffer (pH = 9.6) and mobile phase B was acetonitrile. […]
Data analysis including peak integration was performed using MAVEN[75]. […] Fractional excretion of each probe was calculated using: (probe concentration from MS X total urine volume excreted)/probe input. […]

Clc1cc2c(cc1Cl)Oc1cc(Cl)c(Cl)cc1O2 [TCDD, 2,3,7,8-tetrachlorodibenzo-p-dioxin]
Shift of fecal bile acid mixture HIx ([1]; feces, TCDD): moderate increase in hydrophobicity | Shift of hepatic bile acid mixture HIx ([1]; liver, 3–30 µg/kg TCDD every 4 d for 28 d): toward greater hydrophobicity | Shift of serum bile acid mixture HIx ([1]; serum, TCDD every 4 d for 28 d): more hydrophilic | Half-life [2]: 190 to 288 h | fold induction at 28 d [3]: 1.8 | Hepatic taurine level, max fold increase ([4]; p = 0.05): 1.4 fold | Hepatic glycine level, max fold increase ([4]; p = 0.10): 20.3 fold | Serum alkaline phosphatase (ALP) activity [5]: unchanged | Permeability of the small intestine (lactulose-to-mannitol ratio) [6]: unaffected
